Columns and labels:
[1] = target: T1, IDH1^R132H homodimer enzyme (Homo sapiens, UniProt O75874, R132H); assay: NADPH depletion assay, IDH1 R132H; assay type: biochemical
T1 construct: purchased not specified
Method: (§1) IDH mutated enzyme activity converting alpha-ketoglutarate to 2-hydroxyglutaric acid is measured using a NADPH depletion assay. In the assay the remaining cofactor is measured at the end of the reaction with the addition of a catalytic excess of diaphorase and resazurin, to generate a fluorescent signal in proportion to the amount of NADPH remaining. IDH1 WT enzyme as well as mutated isoforms IDH1^R132H, IDH1^R132C, and IDH^2R172K enzymes are commercially available proteins (see e.g. Sino Biological, Abcam, Active Motif or Creative BioMart).
(§2) IDH1^R132H homodimer enzyme are diluted to 8 nM, in 10 μL of Assay Buffer (150 mM NaCl, 50 mM Tris-HCl pH 7.6, 10 mM MgCl2, 0.001% Triton X-100, 4 mM β-mercaptoethanol); 0.2 uL of test compound, previously serially diluted 1 to 3, >10 experimental points from 1 mM in DMSO, is added and the mixture is incubated for 15 minutes at room temperature. The reaction is started with the addition of 10 μL of Substrate Mix (12 uM NADPH, 3.4 mM alpha-ketoglutarate in Assay Buffer) and the mixture is incubated for 60 minutes at room temperature. The reaction is terminated with the addition of 5 μl of Detection Buffer (100 μg/mL diaphorase, 30 μM resazurin, in IX Assay Buffer), and is incubated for 15 minute before reading on a ViewLux as platereader at Ex544/Em590.

IDH1^R132C = target: T2, IDH1^R132C (Homo sapiens, UniProt O75874, R132C); assay: NADPH depletion assay, IDH1 R132C; assay type: biochemical
T2 construct: purchased not specified
Method: as §1, §2
Compounds are assayed for their activity against IDH1^R132C following the same assay as above with the following modifications: IDH1^R132C and alpha-ketoglutarate final concentrations in the Assay Buffer is 2 nM and 0.14 mM, respectively.

T2 sequence (O75874 whole entry R132C): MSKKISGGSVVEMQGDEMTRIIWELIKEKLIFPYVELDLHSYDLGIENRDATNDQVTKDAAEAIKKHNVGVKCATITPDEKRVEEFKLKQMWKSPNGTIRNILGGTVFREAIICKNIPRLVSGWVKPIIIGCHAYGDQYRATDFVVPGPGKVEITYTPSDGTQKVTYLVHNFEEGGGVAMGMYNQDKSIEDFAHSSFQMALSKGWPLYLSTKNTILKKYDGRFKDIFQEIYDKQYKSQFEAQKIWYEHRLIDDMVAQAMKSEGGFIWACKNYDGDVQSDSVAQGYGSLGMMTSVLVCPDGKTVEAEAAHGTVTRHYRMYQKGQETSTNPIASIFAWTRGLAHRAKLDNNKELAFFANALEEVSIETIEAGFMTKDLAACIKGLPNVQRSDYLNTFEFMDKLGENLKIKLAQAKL
T1 sequence (O75874 whole entry R132H): as the sequence (O75874 whole entry R132C) above, with C132H counted along it

IC50 [1] [nM]	IC50 (IDH1^R132C) [nM]	SMILES
1810	597	C[C@H](Nc1ncc2cc(F)c(=O)n(CC(C)(C)C)c2n1)c1ccccc1 [cpd 47, 8-(2,2-Dimethyl-propyl)-6-fluoro-2-((S)-1-phenyl-ethylamino)-8H-pyrido[2,3-d]pyrimidin-7-one]
290	123	CCOC(=O)C(C)n1c(=O)ccc2cnc(N[C@@H](C)c3ccc(CN4CCCC(F)(F)C4)cc3)nc21 (stereo partly drawn) [cpd 63, ethyl 2-[2-{[(1S)-1-{4-[(3,3-difluoropiperidin-1-yl)methyl]phenyl}ethyl]amino}-7-oxopyrido[2,3-d]pyrimidin-8(7H)-yl]propanoate]
2590	1240	C[C@H](Nc1ncc2ccc(=O)n(Cc3ccc(O)cc3)c2n1)c1ccc(Cl)cc1 [cpd 72, 2-{[(1S)-1-(4-chlorophenyl)ethyl]amino}-8-(4-hydroxybenzyl)pyrido[2,3-d]pyrimidin-7(8H)-one]
1380	951	CC(C)(C)Cn1c(=O)ccc2cnc(NC3(c4ccccc4)CC3)nc21 [cpd 42, 8-(2,2-dimethylpropyl)-2-[(1-phenylcyclopropyl)amino]pyrido[2,3-d]pyrimidin-7(8H)-one]
169	55	C[C@@H]1CN(Cc2ccc([C@H](C)Nc3ncc4ccc(=O)n([C@@H](C)C5CC5)c4n3)cc2F)C[C@H](C)O1 [cpd 171, 8-[(1S)-1-cyclopropylethyl]-2-{[(1S)-1-(4-{[(2R,6S)-2,6-dimethylmorpholin-4-yl]methyl}-3-fluorophenyl)ethyl]amino}pyrido[2,3-d]pyrimidin-7(8H)-one]
138	97	C[C@H](Nc1ncc2ccc(=O)n(CC(C)(C)C)c2n1)c1ccc(C(=O)NC2CCC(F)(F)CC2)c(Cl)c1 [cpd 88, 2-chloro-N-(4,4-difluorocyclohexyl)-4-[(1S)-1-{[8-(2,2-dimethylpropyl)-7-oxo-7,8-dihydropyrido[2,3-d]pyrimidin-2-yl]amino}ethyl]benzamide]
896	1380	C[C@H](Nc1ncc2ccc(=O)n(Cc3c(F)cccc3F)c2n1)c1ccc(C(=O)NC2CCOCC2)cc1 [cpd 78, 4-[(1S)-1-{[8-(2,6-difluorobenzyl)-7-oxo-pyrido[2,3-d]pyrimidin-2-yl]amino}ethyl]-N-(tetrahydro-2H-pyran-4-yl) benzamide]
2440	1380	COC(=O)c1ccc([C@H](C)Nc2ncc3ccc(=O)n(Cc4ccc(F)cc4C(F)(F)F)c3n2)cc1 [cpd 8, methyl-4-[(1S)-1-({8-[4-fluoro-2-(trifluoromethyl)benzyl]-7-oxo-pyrido[2,3-d]pyrimidin-2-yl}amino)ethyl]benzoate]
3770	811	CCn1c(=O)ccc2cnc(N[C@@H](C)c3ccc(C(=O)N4CCN(C(=O)OC(C)(C)C)CC4)cc3)nc21 [cpd 189, tert-butyl 4-(4-{(1S)-1-[(8-ethyl-7-oxo-7,8-dihydropyrido[2,3-d]pyrimidin-2-yl)amino]ethyl}benzoyl)piperazine-1-carboxylate]
1940	524	C[C@H](Nc1ncc2ccc(=O)n(Cc3ccc(F)cc3F)c2n1)c1ccc(Cl)cc1 [cpd 25, 2-{[(1S)-1-(4-chlorophenyl)ethyl]amino}-8-(2,4-difluorobenzyl)pyrido[2,3-d]pyrimidin-7(8H)-one]
3470	1300	C[C@H](Nc1ncc2ccc(=O)n(CC(C)(C)C)c2n1)c1ccc(S(C)(=O)=O)cc1 [cpd 137, 8-(2,2-dimethylpropyl)-2-({(1S)-1-[4-(methylsulfonyl)phenyl]ethyl}amino)pyrido[2,3-d]pyrimidin-7(8H)-one]
3850	1920	COC(=O)c1ccc([C@H](C)Nc2ncc3ccc(=O)n(CC4(C)COC4)c3n2)cc1 [cpd 10, methyl 4-[(1S)-1-({8-[(3-methyloxetan-3-yl)methyl]-7-oxo-pyrido[2,3-d]pyrimidin-2-yl}amino)ethyl]benzoate]
444	282	C[C@H](Nc1ncc2ccc(=O)n(CC(C)(C)C)c2n1)c1ccc(C(=O)NC2CCCC2)cc1 [cpd 80, N-cyclopentyl-4-[(1S)-1-{[8-(2,2-dimethylpropyl)-7-oxo-pyrido[2,3-d]pyrimidin-2-yl]amino}ethyl]benzamide]
543	208	C[C@H](Nc1ncc2cc(F)c(=O)n(CC(C)(C)C)c2n1)c1ccc(CN2CCCC(F)(F)C2)cc1 [cpd 57, 2-{(S)-1-[4-(3,3-Difluoro-piperidin-1-ylmethyl)-phenyl]-ethylamino}-8-(2,2-dimethyl-propyl)-6-fluoro-8H-pyrido [2,3-d]pyrimidin-7-one]
459	307	C[C@H](Nc1ncc2ccc(=O)n(CC(C(F)(F)F)C(F)(F)F)c2n1)c1ccc(CN2CCC(F)(F)CC2)cc1 [cpd 108, 2-{[(1S)-1-{4-[(4,4-difluoropiperidin-1-yl)methyl]phenyl)ethyl]amino)-8-[3,3,3-trifluoro-2-(trifluoromethyl)propyl]pyrido[2,3-d]pyrimidin-7(8H)-one]
2960	1410	COC(=O)c1ccc([C@H](C)Nc2ncc3ccc(=O)n(Cc4cc(F)cc(F)c4)c3n2)cc1 [cpd 7, methyl 4-[(1S)-1-{[8-(3,5-difluorobenzyl)-7-oxo-pyrido[2,3-d]pyrimidin-2-yl]amino}ethyl]benzoate]
941	529	C[C@H](Nc1ncc2ccc(=O)n(Cc3ccccc3)c2n1)c1nc(-c2ccc(Cl)cc2)no1 [cpd 53, 8-benzyl-2-({(1S)-1-[3-(4-chlorophenyl)-1,2,4-oxadiazol-5-yl]ethyl}amino)pyrido[2,3-d]pyrimidin-7(8H)-one]
1130	450	COC(=O)c1ccc([C@H](C)Nc2ncc3ccc(=O)n(CC(C)C)c3n2)cc1 [cpd 5, methyl 4-[(1S)-1-{[8-(2-methylpropyl)-7-oxo-pyrido[2,3-d]pyrimidin-2-yl]amino}ethyl]benzoate]
1090	811	CC(Nc1ncc2ccc(=O)n(CC(C)(C)C)c2n1)C12CC3CC(CC(C3)C1)C2 (centres unmarked) [cpd 44, 8-(2,2-dimethylpropyl)-2-{[1-(tricyclo[3.3.1.1^3,7]dec-1-yl)ethyl]amino}pyrido[2,3-d]pyrimidin-7(8H)-one]
221	108	CCCC(C)(CO)Cn1c(=O)ccc2cnc(N[C@@H](C)c3ccc(CN4CCC(F)(F)CC4)cc3)nc21 (stereo partly drawn) [cpd 120, 2-{[(1S)-1-{4-[(4,4-difluoropiperidin-1-yl)methyl]phenyl}ethyl]amino}-8-[2-(hydroxymethyl)-2-methylpentyl]pyrido[2,3-d]pyrimidin-7(8H)-one]
3060	1590	CC(Nc1ncc2ccc(=O)n(CCF)c2n1)c1ccc(CN2CCC(F)(F)CC2)cc1 (centres unmarked) [cpd 100, 2-[(1-{4-[(4,4-difluoropiperidin-1-yl)methyl]phenyl}ethyl)amino]-8-(2-fluoroethyl)pyrido[2,3-d]pyrimidin-7(8H)-one]
3900	1630	C[C@H](Nc1ncc2ccc(=O)n(CC(C)(C)C(=O)O)c2n1)c1ccc2ccccc2c1 [cpd 121, 2,2-dimethyl-3-[2-{[(1S)-1-(naphthalen-2-yl)ethyl]amino}-7-oxopyrido[2,3-d]pyrimidin-8(7H)-yl]propanoic acid]
713	715	C[C@H](Nc1ncc2ccc(=O)n(Cc3c(F)cccc3F)c2n1)c1ccc(CO)cc1 [cpd 92, 8-(2,6-difluorobenzyl)-2-({(1S)-1-[4-(hydroxymethyl)phenyl]ethyl}amino)pyrido[2,3-d]pyrimidin-7(8H)-one]
2370	1270	CCn1c(=O)ccc2cnc(N[C@@H](C)c3ccc(CN4CCN(C(=O)OC(C)(C)C)CC4)cc3)nc21 [cpd 185, tert-butyl 4-(4-{(1S)-1-[(8-ethyl-7-oxo-7,8-dihydropyrido[2,3-d]pyrimidin-2-yl)amino]ethyl}benzyl)piperazine-1-carboxylate]
717	386	C[C@H](Nc1ncc2ccc(=O)n(CC(C)(C)C(N)=O)c2n1)c1ccc2ccccc2c1 [cpd 122, 2,2-dimethyl-3-[2-{[(1S)-1-(naphthalen-2-yl)ethyl]amino}-7-oxopyrido[2,3-d]pyrimidin-8(7H)-yl]propanamide]
3770	1150	Cc1nc(N[C@@H](C)c2ccc(Cl)cc2)nc2c1ccc(=O)n2CC(C)C [cpd 32, 2-{[(1S)-1-(4-chlorophenyl)ethyl]amino}-4-methyl-8-(2-methylpropyl)pyrido[2,3-d]pyrimidin-7(8H)-one]
1300	923	Cc1nc(N[C@@H](C)c2ccc(CN3CCC(F)(F)CC3)cc2)nc2c1ccc(=O)n2CC(C)C [cpd 118]
4040	1420	C[C@H](Nc1ncc2ccc(=O)n(CC(C)(C)C)c2n1)c1ccc(CN2CCCC2)cc1 [cpd 111, 8-(2,2-dimethylpropyl)-2-({(1S)-1-[4-(pyrrolidin-1-ylmethyl)phenyl]ethyl}amino)pyrido[2,3-d]pyrimidin-7(8H)-one]

— patent publication US12018023B2 (NERVIANO MEDICAL SCIENCES S.R.L., priority 2018, dated 2024)
